ChEMBL document CHEMBL1146913, “Symmetrical and unsymmetrical analogues of isoxyl; active agents against Mycobacterium tuberculosis” (2006)
Converted amounts (≈) assume the structure as drawn. The source made the active and inactive calls. The rule behind the calls is not given here.

Assays:
[1] = system: Mycobacterium tuberculosis; experiment: Inhibition of oleate production in Mycobacterium bovis BCG; assay type: functional; conditions: for inhibition: variant bovis BCG
[2] = system: Mycobacterium tuberculosis; experiment: Antibacterial activity against Mycobacterium bovis BCG; assay type: functional; conditions: variant bovis BCG

Row | Structure (SMILES) | inhibition [1] | MIC99 [2] | Inhibition [1]
1 | CCCCOc1ccc(NC(=S)Nc2ccc(SCCC)cc2)cc1 | inactive | 0.06 µg/mL (≈ 0.16 µM) | 
2 | CCCCOc1ccc(NC(=S)Nc2ccc(Cc3ccccc3)cc2)cc1 |  | 1.5 µg/mL (≈ 3.84 µM) | 66.15%
3 | CCCOc1ccc(NC(=S)Nc2ccc(OCCC)cc2)cc1 |  | 0.5 µg/mL (≈ 1.45 µM) | 90.76%
4 | CCCCOc1ccc(NC(=S)Nc2ccc(OCCCC)cc2)cc1 |  | 0.5 µg/mL (≈ 1.34 µM) | 94.25%
5 | CCCCOc1ccc(NC(=S)Nc2ccc(OCC(C)C)cc2)cc1 |  | 0.6 µg/mL (≈ 1.61 µM) | 63.99%
6 | CCCSc1ccc(NC(=S)Nc2ccc(OCCC(C)C)cc2)cc1 |  | 0.5 µg/mL (≈ 1.29 µM) | 53.32%
7 | CC(C)CCOc1ccc(NC(=S)Nc2ccc(OCCC(C)C)cc2)cc1 [TIOCARLIDE] |  | 1.1 µg/mL (≈ 2.75 µM) | 61.02%
8 | CC(C)CCOc1ccc(NC(=S)Nc2ccc(OCC(C)C)cc2)cc1 |  | 0.9 µg/mL (≈ 2.33 µM) | 19.24%
9 | CC(C)COc1ccc(NC(=S)Nc2ccc(OCC(C)C)cc2)cc1 |  | 0.9 µg/mL (≈ 2.42 µM) | 51.62%
10 | CC(C)CCOc1ccc(NC(=S)Nc2ccc(Cc3ccccc3)cc2)cc1 |  | 1.1 µg/mL (≈ 2.72 µM) | 48.83%
11 | CC(C)CSc1ccc(NC(=S)Nc2ccc(SCC(C)C)cc2)cc1 | inactive | 0.6 µg/mL (≈ 1.48 µM) | 
12 | CCCCc1ccc(NC(=S)Nc2ccc(CCCC)cc2)cc1 | inactive | 0.075 µg/mL (≈ 0.22 µM) | 
13 | CCCCOc1ccc(NC(=S)Nc2ccc(SCC(C)C)cc2)cc1 |  | 0.7 µg/mL (≈ 1.8 µM) | 17.75%
14 | CCCCc1ccc(NC(=S)Nc2ccc(OCCC)cc2)cc1 | inactive | 0.06 µg/mL (≈ 0.175 µM) | 
15 | CCCCc1ccc(NC(=S)Nc2ccc(OCCC(C)C)cc2)cc1 |  | 0.6 µg/mL (≈ 1.62 µM) | 14.82%
16 | CCCCOc1ccc(NC(=S)Nc2ccc(CCCC)cc2)cc1 | inactive | 0.7 µg/mL (≈ 1.96 µM) | 
17 | CCCCOc1ccc(NC(=S)Nc2ccc(OCCC(C)C)cc2)cc1 |  | 0.4 µg/mL (≈ 1.03 µM) | 79.96%
18 | CCCSc1ccc(NC(=S)Nc2ccc(Cc3ccccc3)cc2)cc1 | inactive | 1.75 µg/mL (≈ 4.46 µM) | 
